Test results from the supplement of paper PMC11451515.

Columns and labels:
Assay in all cases: AUC of viability dose-response curve (% viability x log10 dose units); higher = less sensitive
Conditions in all cases: 48 h
SEM cells = test system: SEM cells
Outline: (§1)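 Area under the curve was integrated by trapezoidal rule from a log-logistic fit of normalised viability, with curves exceeding full viability scaled and quality-control failures removed. The fit had four parameters over log10 doses. Viability came from CellTiter-Glo One luminescence, normalised per plate to DMSO and cell-free wells, after leukemia cells adapted to each medium (500 or 1000 cells/well, 1536-well plates) were exposed to library compounds in DMSO for 48 h at 37°C. The 11 threefold doses ran from 47 μM to 0.79 nM.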

P12-Ichikawa = test system: P12-Ichikawa
Outline: as §1

NOMO1 = test system: NOMO1
Outline: as §1

[1] = RPMI 5 mM glucose + 10% dialyzed FBS

Row | SMILES | AUC of viability dose-response curve (SEM cells; HPLM + 10% dialyzed FBS) | AUC of viability dose-response curve (SEM cells; RPMI 5 mM glucose + 10% FBS) | AUC of viability dose-response curve (SEM cells; [1]) | AUC of viability dose-response curve (P12-Ichikawa; HPLM + 10% dialyzed FBS) | AUC of viability dose-response curve (P12-Ichikawa; RPMI 5 mM glucose + 10% FBS) | AUC of viability dose-response curve (P12-Ichikawa; [1]) | AUC of viability dose-response curve (NOMO1; HPLM + 10% dialyzed FBS) | AUC of viability dose-response curve (NOMO1; RPMI 5 mM glucose + 10% FBS) | AUC of viability dose-response curve (NOMO1; [1])
1 | CCOC(=O)c1cncn1[C@H](C)c1ccccc1 | 438 | 468 | 435 | 463 | 452 | 466 | 443 | 477 | 442
2 | C[C@]12CC[C@@H]3c4ccc(O)cc4CC[C@H]3[C@@H]1C[C@@H](O)[C@@H]2O | 468 | 419 | 454 | 466 | 468 | 466 | 436 | 463 | 447
3 | Cc1cc(Nc2cc(CN3CCOCC3)c3nc(C)c(Cc4ccc(Cl)cc4F)n3n2)[nH]n1 | 342 | 317 | 310 | 436 | 428 | 439 | 429 | 424 | 422
4 | O=C(c1ccc(F)c(F)c1Nc1ccc(I)cc1F)N1CC(O)([C@@H]2CCCCN2)C1 | 410 | 434 | 425 | 410 | 403 | 419 | 305 | 292 | 304
5 | C[C@]12CC[C@H]3[C@@H](C\C=C/4C[C@@H](O)CC[C@]34C)[C@@H]1CCC2=O | 468 | 454 | 462 | 449 | 438 | 454 | 439 | 448 | 460
6 | COc1cc([C@H]2Oc3cc([C@H]4Oc5cc(O)cc(O)c5C(=O)[C@@H]4O)ccc3O[C@@H]2CO)ccc1O | 455 | 473 | 467 | 464 | 446 | 456 | 470 | 465 | 452
7 | CN(C)CCOc1ccc(-c2nc(-c3ccncc3)c(-c3ccc4c(c3)CC/C4=N\O)[nH]2)cc1 | 458 | 455 | 466 | 456 | 454 | 452 | 450 | 465 | 437
8 | N[S+](=O)([O-])c1cccc2c1C(=O)c1cccc(O)c1C2=O | 343 | 295 | 278 | 439 | 451 | 447 | 434 | 452 | 443
9 | NCCCCNCCCN | 373 | 427 | 388 | 458 | 434 | 445 | 438 | 460 | 460
10 | CN(C)c1nc(Cc2ccc(NC(=O)c3ccc4ccccc4c3)cc2)nc(Cl)c1CC(=O)O | 461 | 447 | 455 | 440 | 427 | 434 | 377 | 401 | 392
11 | C=CC(=O)Nc1cccc(Nc2nc(NC3CCC(N(C)C)CC3)nc3c2ncn3C(C)C)c1 (configuration not stated) | 319 | 340 | 320 | 366 | 366 | 377 | 348 | 361 | 350
12 | CC[C@]12\C=C/CN3CC[C@]4([C@@H](N(C)C5=CC(=C(C=C45)[C@]6(C[C@H]7C[C@H](CN(C7)CC8=C6[NH]C9=C8C=CC=C9)C(C)(F)F)C(=O)OC)OC)[C@](O)([C@@H]1OC(C)=O)C(=O)OC)[C@H]23 | 215 | 179 | 196 | 189 | 176 | 212 | 256 | 221 | 250
13 | OC(=O)C(CC/1=C/C(=O)NC2=CC=CC=C12)NC(=O)C3=CC=C(Cl)C=C3 (configuration not stated) | 447 | 467 | 470 | 468 | 436 | 465 | 469 | 454 | 469
14 | Cc1ccc([S+](=O)([O-])Nc2nc3ccccc3nc2Nc2ccc3nsnc3c2)cc1 | 410 | 440 | 409 | 422 | 405 | 438 | 361 | 360 | 365
15 | CO/C1=C/C(C)=C\[C@@H](C)[C@@H](O)[C@@H](C)C/C(C)=C\C=C/[C@H](OC)[C@@H]([C@@H](C)[C@@H](O)[C@H](C)[C@@]2(O)C[C@@H](O)[C@H](C)[C@@H](C(C)C)O2)OC1=O | 213 | 211 | 206 | 291 | 263 | 225 | 208 | 229 | 218
16 | C=CCc1cccc(/C=N/NC(=O)CN2CCN(Cc3ccccc3)CC2)c1O | 399 | 411 | 378 | 420 | 424 | 417 | 419 | 448 | 433
17 | CC1=C(CC(=O)O)c2cc(F)ccc2/C1=C\c1ccc([S+](C)[O-])cc1 (configuration not stated) | 450 | 422 | 430 | 458 | 451 | 449 | 448 | 453 | 445

Row | SMILES | AUC of viability dose-response curve (SEM cells; HPLM + 10% dialyzed FBS) | AUC of viability dose-response curve (SEM cells; RPMI 5 mM glucose + 10% FBS) | AUC of viability dose-response curve (SEM cells; [1]) | AUC of viability dose-response curve (P12-Ichikawa; HPLM + 10% dialyzed FBS) | AUC of viability dose-response curve (P12-Ichikawa; RPMI 5 mM glucose + 10% FBS) | AUC of viability dose-response curve (P12-Ichikawa; [1]) | AUC of viability dose-response curve (NOMO1; HPLM + 10% dialyzed FBS) | AUC of viability dose-response curve (NOMO1; RPMI 5 mM glucose + 10% FBS) | AUC of viability dose-response curve (NOMO1; [1])
18 | Cc1cnc(C(=O)O)c[n+]1[O-] | 450 | 416 | 475 | 460 | 468 | 441 | 400 | 454 | 447
19 | CC(O)(C#Cc1ccc2c(c1)N(c1nc(N)ncc1Cl)CC2)c1nccs1 (configuration not stated) | 469 | 430 | 465 | 477 | 468 | 464 | 455 | 467 | 468
20 | Cn1cc(/C=C2\C(=O)Nc3cccnc32)c2ccccc21 | 430 | 421 | 415 | 414 | 442 | 437 | 464 | 451 | 449
21 | ClC1=CC\2=C(NC(=O)\C(=C2N[C@@H]3CN4CCC3CC4)C5=NC6=C([NH]5)C=CC=C6)C=C1 | 211 | 200 | 218 | 302 | 263 | 291 | 286 | 257 | 276
22 | Nc1cccc2c1CN([C@H]1CCC(=O)NC1=O)C2=O | 427 | 390 | 450 | 451 | 448 | 449 | 462 | 428 | 466
23 | Cc1cc(C(=O)N2CCN(c3cccc(Cl)c3)CC2)n(-c2ccccc2)n1 | 354 | 368 | 357 | 349 | 373 | 374 | 364 | 389 | 375
24 | C[S+](=O)([O-])c1ccc(-c2cnc(N)c(C(=O)Nc3ccccc3)n2)cc1 | 413 | 423 | 408 | 462 | 453 | 449 | 435 | 462 | 455
25 | CCCCCCCCCC(=O)N[C@@H](Cc1c[nH]c2ccccc12)C(=O)N[C@H](CC(N)=O)C(=O)N[C@@H](CC(=O)O)C(=O)N[C@@H]1C(=O)NCC(=O)N[C@@H](CCCN)C(=O)N[C@@H](CC(=O)O)C(=O)N[C@H](C)C(=O)N[C@@H](CC(=O)O)C(=O)NCC(=O)N[C@H](CO)C(=O)N[C@@H]([C@@H](C)CC(=O)O)C(=O)N[C@@H](CC(=O)c2ccccc2N)C(=O)O[C@@H]1C | 458 | 455 | 469 | 459 | 454 | 460 | 459 | 466 | 469
26 | C[C@@H](NC(=O)c1ncnc(N)c1Cl)c1ncc(C(=O)Nc2cc(C(F)(F)F)c(Cl)cn2)s1 | 470 | 467 | 467 | 461 | 449 | 448 | 451 | 460 | 453
27 | COc1ccc2c(c1)c(CC(=O)OCC(=O)O)c(C)n2C(=O)c1ccc(Cl)cc1 | 470 | 432 | 454 | 458 | 436 | 450 | 468 | 439 | 463
28 | CN(C)CC[C@H](c1ccc(Cl)cc1)c1ccccn1 | 376 | 438 | 414 | 413 | 388 | 379 | 378 | 382 | 412
29 | COC1=CC=C(C=C1O)C/2=C/C(=O)C3=C(O2)C=C(O)C=C3O | 419 | 456 | 456 | 440 | 446 | 381 | 466 | 428 | 437
30 | COc1cccc([C@@H](C)NCCCc2ccccc2Cl)c1 | 463 | 436 | 472 | 440 | 435 | 432 | 461 | 437 | 429
31 | N#Cc1ccnc(Nc2cc(C3CCN(C4COC4)CC3)cc(N3CCC(F)(F)C3)n2)c1 | 424 | 415 | 408 | 455 | 441 | 439 | 430 | 429 | 426
32 | CCN(C(=O)C/1=C(O)/C2=C(C=CC=C2Cl)N(C)C1=O)C3=CC=CC=C3 | 272 | 258 | 250 | 356 | 322 | 308 | 319 | 306 | 328
33 | CC(C)c1ccc(Cn2ccc3c4c(N)nc(NC5CC5)nc4ccc32)cc1 | 343 | 383 | 390 | 343 | 392 | 368 | 339 | 409 | 384
